T/C data for 19 molecules are collected here from PubChem BioAssay AID330 (DTP/NCI, 2004).

This test concerns P388 leukemia ip, CD2F1 mice, survival T/C. In words: NCI In Vivo Anticancer Drug Screen. Data for tumor model P388 Leukemia (intraperitoneal) in CD2F1 (CDF1) mice. The conditions noted are these: endpoint: median survival time, higher = longer survival. A digest of the protocol: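 Mice carrying the transplanted tumor received test compound or vehicle. Survival was recorded in each group, and the value is the treated-group measurement divided by that of the vehicle-treated control group.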

The mark [1] stands for this setting: dose: 25.0 mg/kg/injection, schedule: Q01DX009 (ip), vehicle: saline with Tween-80.
[2] abbreviates: dose: 50.0 mg/kg/injection, schedule: Q01DX009 (ip), vehicle: saline with Tween-80.
[3] abbreviates: dose: 100.0 mg/kg/injection, schedule: Q01DX009 (ip), vehicle: saline with Tween-80.
Setting [4] is: dose: 200.0 mg/kg/injection, schedule: Q01DX009 (ip), vehicle: saline with Tween-80.
The mark [5] stands for this setting: dose: 100.0 mg/kg/injection, schedule: Q04DX003 (ip), vehicle: saline with Tween-80.
The mark [6] stands for this setting: dose: 60.0 mg/kg/injection, schedule: Q01DX005 (ip), vehicle: Klucel (hydroxypropylcellulose) (HPC).
The mark [7] stands for this setting: dose: 120.0 mg/kg/injection, schedule: Q01DX005 (ip), vehicle: Klucel (hydroxypropylcellulose) (HPC).
Setting [8] is: dose: 240.0 mg/kg/injection, schedule: Q01DX005 (ip), vehicle: Klucel (hydroxypropylcellulose) (HPC).
[9] abbreviates: dose: 25.0 mg/kg/injection, schedule: Q04DX003 (ip), vehicle: saline with Tween-80.
Setting [10] is: dose: 50.0 mg/kg/injection, schedule: Q04DX003 (ip), vehicle: saline with Tween-80.
Where [11] appears, read: dose: 50.0 mg/kg/injection, schedule: Q01DX005 (ip), vehicle: saline with Tween-80.

Each structure is given as a SMILES string. “And” between values parts separate entries of the source, which are not always exact repeats. Equal values may be shown once. Inconclusive results and toxic doses are left out.

As to `O=[N+]([O-])c1cccc(C(O)(C(F)(F)F)C(F)(F)F)c1`, the T/C is 95 % of control under setting [1]; 97 % of control under setting [2]; 106 % of control under setting [3]; 112 % of control (dose: 100.0 mg/kg/injection, schedule: Q04DX002 (ip), vehicle: suspension in saline); 98 % of control under setting [4].
With `COc1cc2c(c(OC)c1OC)-c1ccc(=O)c(OC)cc1[C@@H](N(C)C=O)CC2`, the T/C (dose: 2.5 mg/kg/injection, schedule: Q01DX009 (ip), vehicle: Klucel (hydroxypropylcellulose) (HPC)) was 105 % of control; the T/C (dose: 5.0 mg/kg/injection, schedule: Q01DX009 (ip), vehicle: Klucel (hydroxypropylcellulose) (HPC)) is 112 % of control; the T/C (dose: 10.0 mg/kg/injection, schedule: Q01DX009 (ip), vehicle: Klucel (hydroxypropylcellulose) (HPC)) is 100 % of control; the T/C (dose: 20.0 mg/kg/injection, schedule: Q01DX009 (ip), vehicle: Klucel (hydroxypropylcellulose) (HPC)) is 114 % of control; the T/C (dose: 40.0 mg/kg/injection, schedule: Q01DX009 (ip), vehicle: Klucel (hydroxypropylcellulose) (HPC)) is 114 % of control.
Turning to `C[C@]12CCC(=O)C[C@@H]1CC[C@@H]1[C@@H]2CC[C@]2(C)[C@@H]3OCCC[C@H]3C[C@@H]12`, the T/C is, setting by setting: (dose: 60.0 mg/kg/injection, schedule: Q01DX005 (ip), vehicle: saline with Tween-80) 91 % of control; (dose: 120.0 mg/kg/injection, schedule: Q01DX005 (ip), vehicle: saline with Tween-80) 89 % of control; (dose: 240.0 mg/kg/injection, schedule: Q01DX005 (ip), vehicle: saline with Tween-80) 90 % of control.
As for `O=NN(Cc1cccnc1)C(=O)NC1CCCCC1`, the T/C runs as follows: (dose: 25.0 mg/kg/injection, schedule: Q01DX001 (ip), vehicle: distilled water + Tween-80) 109 % of control; (dose: 50.0 mg/kg/injection, schedule: Q01DX001 (ip), vehicle: distilled water + Tween-80) 98 % of control; (dose: 100.0 mg/kg/injection, schedule: Q01DX001 (ip), vehicle: distilled water + Tween-80) 100 % of control.
For the molecule `CCOC(=O)CCC(NC(=O)N(CCCl)CCCl)C(=O)OCC` (stereo not given), the T/C is, setting by setting: under setting [2], 154 % of control; under setting [3], 168 % of control; under setting [5], 113 % of control; (dose: 132.0 mg/kg/injection, schedule: Q04DX003 (ip), vehicle: saline with Tween-80) 168 % of control; under setting [4], 181 % of control; (dose: 200.0 mg/kg/injection, schedule: Q04DX003 (ip), vehicle: saline with Tween-80) 150 % of control and 172 % of control. The T/C (dose: 300.0 mg/kg/injection, schedule: Q04DX003 (ip), vehicle: saline with Tween-80) is 195 % of control.
Consider `CC(C)(C)n1nc(C2CC2)c(Br)c1NC(=O)c1ccccc1Cl`, for which the T/C is 106 % of control (dose: 30.0 mg/kg/injection, schedule: Q01DX005 (ip), vehicle: Klucel (hydroxypropylcellulose) (HPC)); 109 % of control under setting [6]; 105 % of control under setting [7]; 100 % of control under setting [8].
On to `CCOC(=O)N1C(=O)c2ccccc2C1=O`, for which the T/C is 110 % of control under setting [1]; 115 % of control under setting [9]; 105 % of control under setting [2]; 110 % of control under setting [10]; 100 % of control under setting [3]; 120 % of control under setting [5].
`C=C(C)c1nc(N)nc(N(C)C)n1`: the T/C was 100 % of control (dose: 50.0 mg/kg/injection, schedule: Q01DX005 (ip), vehicle: Klucel (hydroxypropylcellulose) (HPC)); 102 % of control (dose: 100.0 mg/kg/injection, schedule: Q01DX005 (ip), vehicle: Klucel (hydroxypropylcellulose) (HPC)); 100 % of control (dose: 200.0 mg/kg/injection, schedule: Q01DX005 (ip), vehicle: Klucel (hydroxypropylcellulose) (HPC)).
On to `NC(=S)n1nc(-c2ccccc2)c(N=Nc2ccccc2Cl)c1-c1ccccc1`, for which the T/C is 117 % of control under setting [11]; 111 % of control (dose: 100.0 mg/kg/injection, schedule: Q01DX005 (ip), vehicle: saline with Tween-80); 108 % of control (dose: 200.0 mg/kg/injection, schedule: Q01DX005 (ip), vehicle: saline with Tween-80).
In the case of `CS(=O)(=O)OCCN(CCOS(C)(=O)=O)c1cccc(Cl)c1`, the T/C was 95 % of control (dose: 1.25 mg/kg/injection, schedule: Q01DX009 (ip), vehicle: other); 122 % of control (dose: 2.5 mg/kg/injection, schedule: Q01DX009 (ip), vehicle: other); 186 % of control (dose: 10.0 mg/kg/injection, schedule: Q01DX009 (ip), vehicle: other).
Consider `CN(C(=O)C1(C)OC1c1ccccc1)c1ccccc1` (stereo not given), for which the T/C by setting is: (dose: 100.0 mg/kg/injection, schedule: Q04DX003 (ip), vehicle: Klucel (hydroxypropylcellulose) (HPC)) 96 % of control; (dose: 200.0 mg/kg/injection, schedule: Q04DX003 (ip), vehicle: Klucel (hydroxypropylcellulose) (HPC)) 100 % of control; (dose: 400.0 mg/kg/injection, schedule: Q04DX003 (ip), vehicle: Klucel (hydroxypropylcellulose) (HPC)) 94 % of control.
In the case of `CC(=O)Nc1cccc(N)c1`, the T/C is, setting by setting: (dose: 33.0 mg/kg/injection, schedule: Q04DX003 (ip), vehicle: saline) 95 % of control; (dose: 50.0 mg/kg/injection, schedule: Q04DX003 (ip), vehicle: saline) 95 % of control; (dose: 75.0 mg/kg/injection, schedule: Q04DX003 (ip), vehicle: saline) 100 % of control.
For `O=C1c2ccccc2C(=O)N1CBr`, the T/C is 109 % of control (dose: 12.5 mg/kg/injection, schedule: Q01DX009 (ip), vehicle: saline with Tween-80); 104 % of control under setting [1]; 100 % of control under setting [2].
As for `O=C1OCCC1C(O)c1ccccc1` (stereo not given), the T/C is 110 % of control (dose: 25.0 mg/kg/injection, schedule: Q01DX009 (ip), vehicle: other); 102 % of control (dose: 50.0 mg/kg/injection, schedule: Q01DX009 (ip), vehicle: other); 110 % of control (dose: 100.0 mg/kg/injection, schedule: Q01DX009 (ip), vehicle: other); 107 % of control (dose: 200.0 mg/kg/injection, schedule: Q01DX009 (ip), vehicle: other); 111 % of control (dose: 400.0 mg/kg/injection, schedule: Q01DX009 (ip), vehicle: other).
With `NC(N)=NC(N)=Nc1ccc2c(Cl)c(Cl)ccc2c1`, the T/C was 96 % of control (dose: 6.0 mg/kg/injection, schedule: Q01DX005 (ip), vehicle: saline with Tween-80); 111 % of control (dose: 12.0 mg/kg/injection, schedule: Q01DX005 (ip), vehicle: saline with Tween-80); 104 % of control (dose: 22.0 mg/kg/injection, schedule: Q04DX003 (ip), vehicle: saline with Tween-80); 104 % of control (dose: 25.0 mg/kg/injection, schedule: Q01DX005 (ip), vehicle: saline with Tween-80); 120 % of control under setting [9]; 100 % of control (dose: 33.0 mg/kg/injection, schedule: Q04DX003 (ip), vehicle: saline with Tween-80). Further, the T/C under setting [11] was 93 % of control and the T/C under setting [10] was 118 % of control.
For `CC(C)(O)c1ccccc1S(=O)c1ccccc1` (stereo not given), the T/C is 101 % of control (dose: 100.0 mg/kg/injection, schedule: Q01DX001 (ip), vehicle: Klucel (hydroxypropylcellulose) (HPC)); 100 % of control (dose: 200.0 mg/kg/injection, schedule: Q01DX001 (ip), vehicle: Klucel (hydroxypropylcellulose) (HPC)); 92 % of control (dose: 400.0 mg/kg/injection, schedule: Q01DX001 (ip), vehicle: Klucel (hydroxypropylcellulose) (HPC)).
Regarding `Cc1cc(OC(=O)c2ccccc2OS(N)(=O)=O)ccc1Cl`, the T/C runs as follows: under setting [6], 98 % of control; under setting [7], 97 % of control; under setting [8], 94 % of control.
Regarding `Cn1nnc2c(Cl)nccc21`, the T/C reads like this: (dose: 100.0 mg/kg/injection, schedule: Q04DX002 (ip), vehicle: saline) 105 % of control; (dose: 200.0 mg/kg/injection, schedule: Q04DX002 (ip), vehicle: saline) 100 % of control; (dose: 400.0 mg/kg/injection, schedule: Q04DX002 (ip), vehicle: saline) 102 % of control.
For `Cc1cc(N2C(=O)CSC2=S)c([N+](=O)[O-])cc1C`, the T/C (dose: 50.0 mg/kg/injection, schedule: Q01DX009 (ip), vehicle: suspension in saline) is 91 % of control and the T/C (dose: 100.0 mg/kg/injection, schedule: Q01DX009 (ip), vehicle: suspension in saline) was 89 % of control.
